{
  "source": "patent US20140010806A1",
  "about": "“Treatment of Ocular Diseases” (priority 2012, published 2014)",
  "target": "NF-κB",
  "experiment": "NF-κB-bla THP-1 β-lactamase reporter assay, activation of NF-κB by TNFα or LPS",
  "format": "cell-based, human",
  "settings": "positive control assays; 1 hour β-lactamase substrate incubation",
  "from_the_text": "Reduction of inflammation. Inhibition of NF-κB by 17α-ethynylandrost-5-ene-3β,7β,17β-triol in vitro. A number of compounds were used to inhibit activation of NF-κB by TNF-α or LPS in human cells in vitro. Activation of NF-κB increases expression of a number of genes that mediate inflammation. This protocol used human THP-1 cells, which are human mononuclear blood cells with a monocyte phenotype. The cell line, referred to as NF-κB-bla THP-1, contained a β-lactamase reporter gene under the control of the NF-κB response element (Invitrogen, CellSensor™, product No. K1176). In this cell line, the β-lactamase reporter gene is stably integrated in the THP-1 cells. This cell line was used to detect agonists or antagonists of the NF-κB signaling pathway. These NF-κB-bla THP-1 cells respond to the presence of tumor necrosis factor alpha (TNFα) or bacterial lipopolysaccharide (LPS) by increased expression of the β-lactamase reporter gene. The level of β-lactamase enzyme activity was measured by fluorescence resonance energy transfer ratiometric detection. […]\nThe NF-κB-bla THP-1 cells were maintained by passaging or feeding as needed. […] The cells were plated at 20,000 cells/well in a 384-well Black-wall, clear bottom assay plates (Costar #3712-TC low fluorescence background plates) approximately 24 hours before adding either TNFα at 10 ng/mL or LPS at 0.2 ng/mL to activate NF-κB. […]",
  "data": [
    {"substance": "TNFα", "values": [
      {"measurement": "EC50 concentration for TNFα, activation of NF-κB", "result": 0.20, "unit": "ng/mL"}
    ]}
  ]
}
